Drawing on US20110060053A1, “Crystalline Modifications of 6-Dimethylaminomethyl-1-(3-methoxyphenyl)-cyclohexane-1,3-diol” (Gruenenthal GmbH, priority 2002, published 2011), this text covers thermodynamic stability for one molecule.

This series in a line: thermodynamic stability of the crystalline modifications. In kind it is physicochemical. The conditions noted are these: in particular in the temperature range of −20° C. to 120° C.

The structures appear in SMILES notation.

For `COc1cccc([C@@]2(O)C[C@H](O)CC[C@@H]2CN(C)C)c1` (racemic) [Crystalline modification A, (1RS,3RS,6RS)-6-dimethylaminomethyl-1-(3-methoxyphenyl)-cyclohexan-1,3-diol], the thermodynamic stability result is recorded as “most thermodynamically stable form”.
